{"source": "PubChem BioAssay AID330", "about": "(DTP/NCI, 2004)", "test_system": "P388 leukemia ip, CD2F1 mice, survival T/C", "test": "NCI In Vivo Anticancer Drug Screen. Data for tumor model P388 Leukemia (intraperitoneal) in CD2F1 (CDF1) mice", "conditions": "endpoint: median survival time, higher = longer survival", "summary_of_the_method": "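Mice carrying the transplanted tumor received test compound or vehicle. Survival was recorded in each group, and the value is the treated-group measurement divided by that of the vehicle-treated control group.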", "key": {"[1]": {"conditions": "dose: 60.0 mg/kg/injection, schedule: Q01DX005 (ip), vehicle: Klucel (hydroxypropylcellulose) (HPC)"}, "[2]": {"conditions": "dose: 120.0 mg/kg/injection, schedule: Q01DX005 (ip), vehicle: Klucel (hydroxypropylcellulose) (HPC)"}, "[3]": {"conditions": "dose: 240.0 mg/kg/injection, schedule: Q01DX005 (ip), vehicle: Klucel (hydroxypropylcellulose) (HPC)"}}, "note": "Where “and” joins values, the source holds several entries; their conditions need not be identical. Equal values may be shown once. Inconclusive results and toxic doses are left out.", "data": [{"smiles": "CCCCOP(O)(=S)OCCCC.[Y]", "values": [{"measurement": "T/C", "setting": "dose: 25.0 mg/kg/injection, schedule: Q01DX009 (ip), vehicle: saline + alcohol", "value": "98 % of control"}, {"measurement": "T/C", "setting": "dose: 50.0 mg/kg/injection, schedule: Q01DX009 (ip), vehicle: saline + alcohol", "value": "99 % of control"}, {"measurement": "T/C", "setting": "dose: 100.0 mg/kg/injection, schedule: Q01DX009 (ip), vehicle: saline + alcohol", "value": "98 % of control"}, {"measurement": "T/C", "setting": "dose: 100.0 mg/kg/injection, schedule: Q04DX002 (ip), vehicle: saline with Tween-80", "value": "102 % of control"}, {"measurement": "T/C", "setting": "dose: 200.0 mg/kg/injection, schedule: Q01DX009 (ip), vehicle: saline + alcohol", "value": "91 % of control"}, {"measurement": "T/C", "setting": "dose: 200.0 mg/kg/injection, schedule: Q04DX002 (ip), vehicle: saline with Tween-80", "value": "96 % of control"}, {"measurement": "T/C", "setting": "dose: 400.0 mg/kg/injection, schedule: Q04DX002 (ip), vehicle: saline with Tween-80", "value": "96 % of control"}]}, {"smiles": "Nc1nc(=O)n(C2CC(O)C(CO)O2)cc1Br", "note": "(stereo unspecified)", "values": [{"measurement": "T/C", "setting": "dose: 100.0 mg/kg/injection, schedule: Q04DX003 (ip), vehicle: saline", "value": "91 % of control"}, {"measurement": "T/C", "setting": "dose: 200.0 mg/kg/injection, schedule: Q04DX003 (ip), vehicle: saline", "value": "100 % of control"}, {"measurement": "T/C", "setting": "dose: 400.0 mg/kg/injection, schedule: Q04DX003 (ip), vehicle: saline", "value": "104 % of control"}]}, {"smiles": "C=CCOC(=O)C1CC2OC2CC1C", "note": "(stereo unspecified)", "values": [{"measurement": "T/C", "setting": "dose: 75.0 mg/kg/injection, schedule: Q01DX009 (ip), vehicle: saline with Tween-80", "value": "96 % of control"}, {"measurement": "T/C", "setting": "dose: 150.0 mg/kg/injection, schedule: Q01DX009 (ip), vehicle: saline with Tween-80", "value": "103 % of control"}, {"measurement": "T/C", "setting": "dose: 300.0 mg/kg/injection, schedule: Q01DX009 (ip), vehicle: saline with Tween-80", "value": "97 % of control"}]}, {"smiles": "COC(=O)C1=CO[C@@H](OC2OC(CO)C(O)C(O)C2O)[C@H]2[C@@H](C)[C@@H](O)[C@@H](O)[C@@H]12", "note": "(stereo partly specified)", "values": [{"measurement": "T/C", "setting": "dose: 5.25 mg/kg/injection, schedule: Q01DX005 (ip), vehicle: Klucel (hydroxypropylcellulose) (HPC)", "value": "100 % of control"}, {"measurement": "T/C", "setting": "dose: 10.5 mg/kg/injection, schedule: Q01DX005 (ip), vehicle: Klucel (hydroxypropylcellulose) (HPC)", "value": "95 % of control"}, {"measurement": "T/C", "setting": "dose: 21.0 mg/kg/injection, schedule: Q01DX005 (ip), vehicle: Klucel (hydroxypropylcellulose) (HPC)", "value": "104 % of control"}, {"measurement": "T/C", "setting": "dose: 42.0 mg/kg/injection, schedule: Q01DX005 (ip), vehicle: Klucel (hydroxypropylcellulose) (HPC)", "value": "99 % of control"}]}, {"smiles": "CC(=O)OC1C(OC(=O)c2ccccc2)C=CC2OC21COC(=O)c1ccccc1", "note": "(stereo unspecified)", "values": [{"measurement": "T/C", "setting": "dose: 25.0 mg/kg/injection, schedule: Q01DX005 (ip), vehicle: saline + alcohol", "value": "97 % of control"}, {"measurement": "T/C", "setting": "dose: 50.0 mg/kg/injection, schedule: Q01DX005 (ip), vehicle: saline + alcohol", "value": "105 % of control"}, {"measurement": "T/C", "setting": "dose: 100.0 mg/kg/injection, schedule: Q01DX005 (ip), vehicle: saline + alcohol", "value": "98 % of control"}, {"measurement": "T/C", "setting": "dose: 200.0 mg/kg/injection, schedule: Q01DX005 (ip), vehicle: saline + alcohol", "value": "91 % of control"}]}, {"smiles": "Cc1cccc(NN=O)n1", "values": [{"measurement": "T/C", "setting": "dose: 1.5 mg/kg/injection, schedule: Q01DX009 (ip), vehicle: water", "value": "98 % of control"}, {"measurement": "T/C", "setting": "dose: 1.56 mg/kg/injection, schedule: Q01DX009 (ip), vehicle: water", "value": "99 % of control"}, {"measurement": "T/C", "setting": "dose: 3.0 mg/kg/injection, schedule: Q01DX009 (ip), vehicle: water", "value": "107 % of control"}, {"measurement": "T/C", "setting": "dose: 3.12 mg/kg/injection, schedule: Q01DX009 (ip), vehicle: water", "value": "115 % of control"}, {"measurement": "T/C", "setting": "dose: 6.25 mg/kg/injection, schedule: Q01DX009 (ip), vehicle: water", "value": "120 % of control"}, {"measurement": "T/C", "setting": "dose: 25.0 mg/kg/injection, schedule: Q01DX009 (ip), vehicle: water", "value": "163 % of control"}]}, {"smiles": "COC(=O)c1nc(=S)[nH]c(C(=O)OC)c1C(=O)c1ccc([N+](=O)[O-])cc1", "values": [{"measurement": "T/C", "setting": "[1]", "value": "101 % of control"}, {"measurement": "T/C", "setting": "[2]", "value": "95 % of control"}, {"measurement": "T/C", "setting": "[3]", "value": "91 % of control"}]}, {"smiles": "CC(=O)NCCc1ccc(OC(C)=O)c(OC(C)=O)c1", "values": [{"measurement": "T/C", "setting": "dose: 50.0 mg/kg/injection, schedule: Q01DX005 (ip), vehicle: saline with Tween-80", "value": "99 % of control"}, {"measurement": "T/C", "setting": "dose: 100.0 mg/kg/injection, schedule: Q01DX005 (ip), vehicle: saline with Tween-80", "value": "103 % of control"}, {"measurement": "T/C", "setting": "dose: 200.0 mg/kg/injection, schedule: Q01DX005 (ip), vehicle: saline with Tween-80", "value": "107 % of control"}]}, {"smiles": "Cc1ccc(N(CN2C(=O)CCC2=O)CS(=O)(=O)c2ccc(C)cc2)cc1", "values": [{"measurement": "T/C", "setting": "[1]", "value": "97 % of control"}, {"measurement": "T/C", "setting": "[2]", "value": "98 % of control and 93 % of control"}, {"measurement": "T/C", "setting": "[3]", "value": "93 % of control and 96 % of control"}]}, {"smiles": "CCOC(=O)c1c(N)sc2c1CCCCC2", "values": [{"measurement": "T/C", "setting": "dose: 100.0 mg/kg/injection, schedule: Q04DX003 (ip), vehicle: saline with Tween-80", "value": "100 % of control"}, {"measurement": "T/C", "setting": "dose: 200.0 mg/kg/injection, schedule: Q04DX003 (ip), vehicle: saline with Tween-80", "value": "104 % of control"}, {"measurement": "T/C", "setting": "dose: 400.0 mg/kg/injection, schedule: Q04DX003 (ip), vehicle: saline with Tween-80", "value": "100 % of control"}]}, {"smiles": "COc1cc(OC)c(OC)cc1/C=C/C1=C(C)C(=O)CC(c2cc(OC)c(OC)cc2OC)C1C", "note": "(stereo unspecified)", "values": [{"measurement": "T/C", "setting": "dose: 100.0 mg/kg/injection, schedule: Q01DX001 (ip), vehicle: Klucel (hydroxypropylcellulose) (HPC)", "value": "86 % of control"}, {"measurement": "T/C", "setting": "dose: 200.0 mg/kg/injection, schedule: Q01DX001 (ip), vehicle: Klucel (hydroxypropylcellulose) (HPC)", "value": "86 % of control"}]}]}
